Tests used:
[1] = system: allograft pancreatic cancer cell lines; experiment: Allograft pancreatic cancer cell lines in mouse model, tumor size; type: in vivo; details: 0.01 mg/kg intraperitoneal injection, three times a week
Protocol: (§1) LD030's effect on the growth of allograft pancreatic cancer cell lines was further studied as follows: Each mouse model was given 0.01 mg/kg LD030 via intraperitoneal injection, three times a week. […] Extracted from the treated mouse and the control mouse, the phosphorylation-signal transduction and activator of transcription (p-STAT3), phospho-JAK2 (p-JAK2), Bcl-XL, apoptosis protease 3, 9 and GADPH (glyceraldehyde-3-phosphate dehydrogenase, or […]) were subject to protein electrophoresis. […] GADPH was used as an internal reference, the expression of which was basically unchanged.

[2] = system: pancreatic cancer cell lines; experiment: Nude mouse model of pancreatic cancer (xenograft), tumor size; type: in vivo, NOD/SCID mice; details: 43 days; for tumor volume reduced: FIG. 15
Protocol: Two strains of pancreatic cancer cell lines were selected to be grafted to nonobese diabetic/severe combined immunodeficient (NOD/SCID) mice, and the tumor was inoculated in mouse ventral sides. About two weeks, they were used as a nude mouse model of pancreatic cancer. […] Each of the above groups. The treatment continued for 43 days (gemcitabine alone group 2 times a week; other groups 3 times a week), and then tumor size was recorded as shown in FIG. 16. […] Further experiments were conducted to study the effects of the combinational use of LD030 with gemcitabine as compared being used alone on tumor inhibition. Four treatment groups were set up: (a) blank control, (2) gemcitabine (25 mg/kg/time, 2 times a week), (3) LD030 (0.5 mg/kg/time, 3 times a week), (4) LD030 (0.5 mg/kg/time, 3 times a week) together with gemcitabine (25 mg/kg/time, 2 times a week).

[3] = system: NCI-H460 (lung cancer cell line); experiment: MTT assay, LD030 on NCI-H460; type: cell-based; details: Homo sapiens; NCI-H460, 100 μM, 48 hours; read-out: inhibition rate on cell growth
Protocol: (§2) MTT assay, a well known method known in the art, was used to analyze anticancer effects of compound LD030 on human cancer cell lines, such as, HepG2 (liver cancer cell line), PancI (pancreatic cancer cell line), NCI-H460 (lung cancer cell line), MCF-7 (breast adenocarcinoma cell line) and SF-268 (brain tumor cell lines). An LD030 solution was diluted gradually to obtain a serial of LD030 solutions with decreasing concentrations, which was used to treat various cancer cell lines mentioned above incubated in separate container. […] For incubating with HepG2 cell line, LD030's concentrations were 0.001 μM, 0.01 μM, 0.1 μM, 1 μM, 10 μM, 100 μM. For PancI cell line, the concentrations were 0.1 μM, 1 μM, 10 μM, 100 μM. For NCI-H460 cell line, the concentrations were 0.001 μM, 0.01 μM, 0.1 μM, 1 μM, 10 μM, 100 μM. For MCF-7 cell line, the concentrations were 0.001 μM, 0.01 μM, 0.1 μM, 1 μM, 10 μM, 100 μM. For SF-268 cell line, the concentrations were 0.001 μM, 0.01 μM, 0.1 μM, 1 μM, 10 μM, 100 μM.

[4] = system: p-STAT3, p-JAK2, Bcl-XL, apoptosis protease 3, 9; experiment: Protein electrophoresis of extracts from treated allograft mouse; type: in vivo; details: 0.01 mg/kg intraperitoneal injection, three times a week; versus control mouse
Protocol: as §1

[5] = system: Jak/STAT phosphorylation in PancI cells; experiment: Western Blotting of signal pathway proteins in PancI cells; type: cell-based, human
[6] = system: SF-268 (brain tumor cell lines); experiment: MTT assay, LD030 on SF-268; type: cell-based; details: Homo sapiens; SF-268, 100 μM, 48 hours; read-out: inhibition rate on cell growth
Protocol: as §2

HepG2 = experiment: In vitro effects on growth of liver cancer cells (Table 4); type: cell-based, human
HepG2 cells = experiment: Nude mouse model of hepatocellular carcinoma (HepG2), growth rate; type: in vivo, nude mice
Protocol: In contrast, LD30 (1 mg/kg/time, twice a day) reduced the growth rate of HepG2 cells by about 63%, with statistical significance (p<0.05) when compared with the ethanol control.
LD030 was also compared with Nexavar for their effects on the growth rate of HepG2 cells.
A further study was conducted on liver cancer cell line in nude mice (HepG2), where Nexavar's dosage was 30 mg/kg, twice a day and LD030's dosage was 1 mg/kg, twice a day along with a blank control and a combination of LD030 and Nexavar. The result is shown in FIG. 21 where Nr stands for Nexavar. […] When compared with the blank, LD030's effect is statistically significant (p<0.05).

[7] = Toxicity study of LD030 on BALB/c mice; type: in vivo
Protocol: LD030 animal toxicity experiments were conducted in adult BALB/c mice. The mice were subject to a […] dosage of 1-16 mg/Kg via peritoneal injection. […] The results confirmed that at a dosage as high as 16 mg/Kg LD030 is safe to BALB/c. By short-term toxicological experiment, the half-lethal dose LD50 (under continuous treatment) is 4 mg/kg, and the median effective dose ED50 of 0.2 mg/kg, resulting in a therapeutic Index of 20 (that is, LD50/ED50≈20).

[8] = system: PancI (pancreatic cancer cell line); experiment: MTT assay, LD030 on PancI; type: cell-based; details: Homo sapiens, 48 hours, read-out: inhibition rate on cell growth
Protocol: as §2

[9] = system: MCF-7 (breast adenocarcinoma cell line); experiment: MTT assay, LD030 on MCF-7; type: cell-based; details: Homo sapiens, MCF7; MCF-7, 100 μM, 48 hours; read-out: inhibition rate on cell growth
Protocol: as §2

[10] = 50 μM, at 24 hours and 48 hours, versus blank control

With `CC(=O)OC(C)(C)C(=O)CCC(C)C1CC[C@@]2(C)C34CC[C@H]5C(C)(C)[C@@H](O)CC[C@]5(C)C3(CC[C@]12C)O4` (stereo partly shown) [LD030] the “tumor size versus untreated control mouse” value [1] was “significantly reduced”, the tumor volume reduced ([2]; 0.5 mg/kg/time LD030, 3 time a week) was 21% and the tumor volume reduced ([2]; 1 mg/kg/time LD030, 3 time a week) was 62%. The tumor size reduced ([2]; LD030 0.5 mg/kg/time, 3 times a week, FIG. 17) was 21%, the inhibition at 100 µM [3] was greater than 80% and the “expression of Bcl-XL” value [4] was “significantly reduced”. For the same compound, the “expression of apoptosis protease 3, 9” value [4] was “significantly increased”, the “expression of p-JAK2” value [4] was “significantly reduced” and the “expression of p-STAT3” value [4] was “significantly reduced”. The p-p38 protein expression ([5]; 20 μM, versus blank control) was “increased”, the p-jak2 [5, 10] was “significantly reduced” and the “p-stat3 (tyr705)” value [5, 10] was “significantly reduced”. For the same compound, the “expression of Cyclin B1” value ([5]; 50 μM, at 48 hours) was “decreased”, the inhibition at 100 µM [6] was greater than 80% and the IC50 (HepG2; Homo sapiens, HepG2, in vitro growth of HepG2 liver cancer cells) was 1.33 µM. For the same compound, the IC50 (HepG2; in vitro growth of HepG2 liver cancer cells) was 1.57 µM, the “effect on the tumor cells” value (HepG2 cells; HepG2 in nude mice, LD030 1 mg/kg twice a day alone, FIG. 21) was “inhibitory effect” and the “reduction of growth rate of HepG2 cells” value (HepG2 cells; nude mouse model, 1 mg/kg, twice a day, versus blank carrier control) was “about 63%”. The “therapeutic Index (LD50/ED50)” value ([7]; BALB/c, mouse, in vivo) was 20, the LD50 ([7]; BALB/c, mouse, in vivo, short-term toxicological experiment, under continuous treatment, read-out: half-lethal dose LD50) was 4 mg/kg and the ED50 ([7]; Mus musculus, read-out: median effective dose ED50) was 0.2 mg/kg. The toxicity observed ([7]; adult BALB/c mice, 1-16 mg/Kg via peritoneal injection) was “No significant toxicity”, the survival ([7]; adult BALB/c mice, 1-16 mg/Kg via peritoneal injection, after 14 days) was “still alive” and the inhibition at 100 µM [8] was greater than 80%. For the same compound, the inhibition at 100 µM [9] was greater than 80%.

— patent publication US9522935B2, “Commands and method of treating cancer via RHO pathway” (priority 2013, dated 2016)
